A word on the IC50: it is the concentration needed to halve the response being measured. The term Ki denotes a dissociation constant, usually derived from enzyme kinetics or from competition with a known ligand. Usually ED50 stands for the midpoint of the dose-response relation. For orientation: melting point means the temperature, or range, at which the solid turns liquid.

Data set [1] concerns AEA uptake in U937 cells. The data set can be described thus: AEA uptake inhibition in U937 cells. The format is cell-based. The procedure: Based on the natural product (2E,4E)-N-isobutylamidedodeca-2,4-dienamide from the medicinal plant E. purpurea as a starting point, a library of 634 of analogs and derivatives with varying alkyl chain length was synthesized, and structure of the head group moiety analyzed. All new derivatives were tested for AEA uptake inhibition in U937 cells using a high-content screening assay.
(§1) All radioactivity-based AEA and 2-AG uptake and release assays performed in U937, and HMC-1 cells were carried out using two different assay formats as previously reported. AEA and 2-AG uptake assay in Neuro2a and primary mouse cortical neurons were performed with a different method disclosed in Chicca 2017.

Data set [2] concerns the target T1, MAGL (Mus musculus, UniProt O35678).
T1 construct: membrane preparations obtained from mouse brains; from tissue; host or cells: mouse brain membranes
The data set can be described thus: MAGL activity (ABPP and radioactivity-based hydrolytic assays). As to conditions: ABPP in mouse brain homogenate and hydrolytic assays. The format is biochemical. The procedure:
(§2) ABPP experiments were performed using membrane preparations obtained from mouse brains as described earlier.
FAAH, ABHDs, MAGL and COX-2 activity assays were performed using cell homogenates, human recombinant enzymes and mouse, rat and pig brain homogenates as previously described.

Data set [3] deals with major serine hydrolases. Put plainly: Activity-based protein profiling (ABPP) in mouse brain membranes. The format is biochemical. Particulars: membranes from mouse brain. The procedure:
as §2

Data set [4] concerns EC efflux and release in U937 cells. Put plainly: EC efflux and release in U937 cells. The format is cell-based. The procedure:
as §1

A short description of data set [5]: 14C-WOBE437 saturation binding to mouse brain membranes. Particulars: binding kinetics, high affinity site; read-out: affinity for membrane binding site. As to the method:
In addition to their effects on AEA uptake, the inhibition of FAAH was thoroughly investigated for all nanomolar inhibitors. […] The lack of significant FAAH inhibition by WOBE437 was established in different assay systems using human recombinant enzyme, cell and brain homogenates. […] Importantly, WOBE437 (1 μM) inhibited AEA uptake also in primary mouse cortical neurons by 50% after 2-7 min of incubation with a smaller inhibition (20-35%) upon longer incubation (10-20 min, FIG. 1F). […] In Neuro2a cells, incubation with WOBE437 (5 μM) for 2 and 5 min reduced overall uptake by 40%. (FIG. 1G). […] Then cells were treated with radiolabeled ^14C-WOBE437 to investigate the cellular penetration of the compound. In U937 cells, the vast majority of the radioactive signal was collected in the extracellular and membrane-bound fractions (75-90%), with negligible amounts (5-9%) detected in the intracellular fraction (FIGS. 2A-D). […] In order to further investigate this point, ^14C-WOBE437 was applied to membrane preparations generated in-house from mouse brain and U937 cells. […] The Kd values are in line with the IC50 values shown in the functional AEA uptake assays in Neuro2a and U937 cells (FIGS. 1C and 1D). In further experiments, 10 nM of ^14C-WOBE437 was co-incubated with different concentrations of AEA and U937 membranes. […] Furthermore, the endocannabinoids AEA and noladin ether and the AEA uptake inhibitor OMDM-2 could compete with ^14C-WOBE437 binding in brain and U937 membranes. […] Secondary plots of the slope (Kmapp/Vmaxapp vs. [WOBE437]) and intercept (1/Vmaxapp vs. [WOBE437]) confirmed the competitive inhibition of AEA uptake.

Data set [6] addresses CB1 receptor (Homo sapiens, UniProt P21554). The data set can be described thus: CB1 receptor binding assay. The procedure: CB1 and CB2 receptor binding assays [^35S]GTPγS assays were performed as previously described. WOBE437 was profiled in more detail in an extended CNS adverse drug reaction screening panel (CEREP).
Data set [7] deals with BALB/c mice. The data set can be described thus: Acetic acid-induced writhing test. Particulars: 5 and 10 mg/kg. The class given is in vivo, mouse. The procedure:
WOBE437 was initially assessed in a battery of four individual tests typically associated with CB1 receptor activation in mice (nociception, locomotion, body temperature and cataleptic behavior), collectively referred to as the “tetrad”. Dose-response experiments identified 10 mg/kg as the lowest dose to elicit a moderate but complete tetrad in BALB/c mice upon intraperitoneal (i.p.) administration (FIGS. 3A-D). […] To assess whether the WOBE437-induced effects were CB1 receptor-mediated, mice were pre-treated with the selective antagonist/inverse agonist rimonabant (SR1). […] These experiments provided a proof-of-concept for the mechanism of action of WOBE437 as a novel “indirect CB1 receptor agonist”. In subsequent studies, the effects of WOBE437 in pain, inflammatory and anxiety models were investigated. […] Both effects were reversed by SR1.
WOBE437 and RX-055 were tested in independent laboratories, in different mouse strains and in multiple (behavioral) models for cannabimimetic, analgesic, anti-inflammatory and anxiolytic-effects in wild-type and phenotypical CB1-KO mice as described in Chicca 2017.

A short description of data set [8]: Hot plate test after oral administration. The class given is in vivo, mouse. Particulars: male, BALB/c, mouse, in vivo; from effective doses 50 mg/kg p.o. vs 10 mg/kg i.p.; read-out: overall bioavailability compared to the i.p. administration route. The procedure: (§3) Acute pain was evaluated 1 h after gavage administration of WOBE437, at 10, 25, 50 and 100 mg/kg in BALB/c mice. The test was performed using a clean 54-56° C. hot plate (Thermo Scientific, USA) with a Plexiglas cylinder. The latency to show the first nociceptive response (paw lick or foot shake) was measured. In order to evaluate CB1 receptor antagonism, 5 mg/kg of rimonabant (Pharmasery AG, Switzerland) was injected intraperitoneally (i.p.) (20 μL, in DMSO) 30 min before WOBE437 administration.

Data set [9] deals with BALB/c male mice. The data set can be described thus: Hot plate test after oral administration. The format is in vivo, mouse. As to the method: as §3
Background: Hot-plate and tail-flick tests time the reaction to a heat stimulus.

The subject of data set [10] is cell lines and human whole blood. Put plainly: NAE levels in cell lines and human whole blood. The class given is cell-based. From the text: WOBE437, AEA, 2-AG, other lipids and hormones were quantified by LC-MS/MS in different biological matrices (cells, human whole blood, rodent tissues) as reported in Chicca 2017.

CB1 receptor, sequence (P21554 whole entry): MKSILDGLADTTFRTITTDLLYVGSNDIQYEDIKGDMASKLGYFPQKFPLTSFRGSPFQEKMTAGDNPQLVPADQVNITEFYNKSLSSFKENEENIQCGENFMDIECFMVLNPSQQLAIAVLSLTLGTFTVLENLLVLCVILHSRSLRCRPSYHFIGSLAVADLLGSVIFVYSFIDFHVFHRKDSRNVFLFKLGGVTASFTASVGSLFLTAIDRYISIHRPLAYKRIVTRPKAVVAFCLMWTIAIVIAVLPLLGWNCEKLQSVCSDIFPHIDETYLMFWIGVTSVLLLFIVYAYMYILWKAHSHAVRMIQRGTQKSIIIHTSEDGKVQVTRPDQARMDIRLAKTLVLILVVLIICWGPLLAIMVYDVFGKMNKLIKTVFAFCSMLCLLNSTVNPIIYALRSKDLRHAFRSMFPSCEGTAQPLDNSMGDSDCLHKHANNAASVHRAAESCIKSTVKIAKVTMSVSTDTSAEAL
T1 sequence (O35678 whole entry): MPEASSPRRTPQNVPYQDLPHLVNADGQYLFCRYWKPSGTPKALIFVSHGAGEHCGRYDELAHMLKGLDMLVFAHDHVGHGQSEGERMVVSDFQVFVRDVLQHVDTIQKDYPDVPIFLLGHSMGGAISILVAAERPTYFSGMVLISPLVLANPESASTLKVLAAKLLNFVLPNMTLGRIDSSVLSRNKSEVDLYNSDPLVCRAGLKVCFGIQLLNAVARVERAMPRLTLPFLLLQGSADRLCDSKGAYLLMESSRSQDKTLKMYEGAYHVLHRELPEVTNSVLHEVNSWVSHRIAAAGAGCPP

In turn, `CCCCCCC/C=C/C=C/C(=O)NCCc1ccc(OC)c(OC)c1` [WOBE437, (2E,4E)-N-[2-(3,4-Dimethoxyphenyl)ethyl]dodeca-2,4-dienamide] yielded a melting point of 112 °C. Besides, in data set [1], the “residual AEA and 2-AG reuptake upon treatment” value is recorded as 20-30%; the “selectivity for AEA uptake over FAAH / AEA hydrolysis” value came out at 1000 fold. This compound came in with an IC50 in data set [1] (Homo sapiens, U-937, U937 cells, 100 nM total AEA) of 10 ± 8 nM. Besides, the “Hill slope, AEA uptake” value in data set [1] (U937 cells, multiphase AEA uptake assay) is −0.715. Further, the “type of AEA uptake inhibition (Michaelis-Menten analysis)” value in [1] (intact U937 cells) is “competitive”. Besides, the “reversibility of AEA uptake inhibition” value in data set [1] (rapid dilution assay) was “reversible”. In addition, the “inhibition of MAGL” value in data set [2] is given as “did not inhibit”. For the same compound, the “inhibition of major serine hydrolases (ABPP)” value in data set [3] is given as “does not inhibit any of the major serine hydrolases”. Also, the “inhibition of EC release” value in data set [4] stood at 20%. Also, the “effect on EC release” value in [4] (cells stimulated with ATP, thapsigargin and ionomycin) is reported as “blocked the release of both ECs”. Moreover, in [4] (pre-loaded U937 cells), the “effect on AEA efflux” value is “inhibited the efflux of AEA”. Further, in data set [5], the Kd was in the range of 10 to 20 nM. This compound gave a Ki in data set [6] of 17000 nM. In addition, in data set [7], the “abdominal stretches in the acetic writhing test” value is given as “reduced number of abdominal stretches”. In [8], the bioavailability is 20%. For the same compound, the “increase of pain threshold vs vehicle” value in data set [9] (50 mg/kg p.o.) was 61.7%. Moreover, the “pain threshold (latency)” value in data set [9] (50 mg/kg p.o., vehicle 5.8±0.9 s) turned out to be 9.4 ± 1.9 s. Further, the “pain threshold (latency)” value in data set [9] (100 mg/kg p.o.) amounted to 11.7 ± 2.6 s. In addition, in data set [9] (Mus musculus, po, hot plate, read-out: estimated effective dose (ED50)), the ED50 was 42.5 ± 3.9 mg/kg. Also, in data set [9] (p.o., hot plate), the “minimum dose to significantly increase pain threshold” value came out at 50 mg/kg. Also, the “antinociceptive effect after rimonabant pre-treatment” value in data set [9] (rimonabant 5 mg/kg i.p.) was “completely abolished”. In [10], the “levels of other NAEs” value is “without altering the levels of other NAEs”.
